According to patent US20230131966A1, “FUNGICIDAL AMIDES” (FMC Corporation, priority 2020, published 2023):

Key:
Type in all cases: in vivo
[1] = tested on: Puccinia recondita f. sp. tritici; test: Test B: wheat leaf rust control on wheat seedlings; conditions: for Test B disease control rating: 250 ppm, wheat seedlings, 100 = 100% disease control, 0 = no control
Botrytis cinerea = test: Test E: tomato Botrytis control on tomato seedlings; conditions: for Test E disease control rating: 250 ppm, 100 = 100% disease control, 0 = no control
Plasmopara viticola = test: Test D: grape downy mildew control on grape seedlings; conditions: for Test D disease control rating: 250 ppm, 100 = 100% disease control, 0 = no control
[2] = tested on: Erysiphe graminis f. sp. tritici; test: Test G: wheat powdery mildew control on wheat seedlings; conditions: for Test G disease control rating: 250 ppm, 100 = 100% disease control, 0 = no control
Zymoseptoria tritici = test: Test C: wheat leaf blotch control on wheat seedlings; conditions: for Test C disease control rating: 250 ppm, wheat seedlings, 100 = 100% disease control, 0 = no control
Phakopsora pachyrhizi = test: Test A: Asian soybean rust control on soybean seedlings; conditions: for Test A disease control rating: 250 ppm, soybean seedlings, 100 = 100% disease control, 0 = no control
Phytophthora infestans = test: whole plant or invertebrate; conditions: tomato seedlings; for Test F disease control rating: 250 ppm, 100 = 100% disease control, 0 = no control
[3] = rate 250 ppm, relative to the controls

Row | SMILES | Test B disease control rating [1] [%] | Test E disease control rating (Botrytis cinerea) [%] | Test D disease control rating (Plasmopara viticola) [%] | Test G disease control rating [2] [%] | Test C disease control rating (Zymoseptoria tritici) [%] | Test A disease control rating (Phakopsora pachyrhizi) [%] | Test F disease control rating (Phytophthora infestans) [%] | Test B disease control rating (100 = 100% disease control, 0 = no disease control) [1, 3] [%] | Test E disease control rating (100 = 100% disease control, 0 = no disease control) (Botrytis cinerea; [3]) [%] | Test D disease control rating (100 = 100% disease control, 0 = no disease control) (Plasmopara viticola; [3]) [%] | Test G disease control rating (100 = 100% disease control, 0 = no disease control) [2, 3] [%] | Test C disease control rating (100 = 100% disease control, 0 = no disease control) (Zymoseptoria tritici; [3]) [%] | Test A disease control rating (100 = 100% disease control, 0 = no disease control) (Phakopsora pachyrhizi; [3]) [%] | Test F disease control rating (100 = 100% disease control, 0 = no disease control) (Phytophthora infestans; [3]) [%]
1 | COc1ccnc(C(=O)NC(C)C(=O)OC(C)c2ccc(C3CCCCC3)cc2)c1OC(=O)C(C)C (mixture of isomers) [Compound 154] | 98 | 0 | 48 | 0 | 85 | 100 | 0 |  |  |  |  |  |  | 
2 | COc1ccnc(C(=O)NC(C)C(=O)OC(C)c2ccccc2C(F)(F)F)c1OC(C)=O (mixture of isomers) [Compound 18] | 68 | 0 | 35 | 0 | 93 | 62 | 0 |  |  |  |  |  |  | 
3 | COc1ccnc(C(=O)NC(C)C(=O)OC(C)c2ccc(C(F)(F)F)cc2)c1OC(C)=O (mixture of isomers) [Compound 35] | 100 | 0 | 68 | 0 | 80 | 100 | 0 |  |  |  |  |  |  | 
4 | COc1ccnc(C(=O)N[C@@H](C)C(=O)OC(C)c2cccc(OC3CCC(C)(C)CC3)c2)c1O (stereo partly drawn) [Compound 138] | 74 | 0 | 18 | 0 | 63 | 95 | 0 |  |  |  |  |  |  | 
5 | CCC(OC(=O)[C@H](C)NC(=O)c1nccc(OC)c1O)C1CCCCC1 (single isomer, unassigned) [Compound 167] | 100 | 0 | 41 | 0 | 90 | 100 | 0 |  |  |  |  |  |  | 
6 | CCOC(=O)c1ccn(-c2ccc(C(C)OC(=O)C(C)NC(=O)c3nccc(OC)c3O)cc2)n1 (mixture of isomers) [Compound 49] | 41 | 0 | 17 | 0 | 0 | 97 | 0 |  |  |  |  |  |  | 
7 | COc1ccnc(C(=O)NC(C)C(=O)OC(C)C2CC(C)(C)CC(C)(C)C2)c1OC(C)=O (mixture of isomers) [Compound 171] | 100 | 0 | 49 | 0 | 80 | 100 | 53 |  |  |  |  |  |  | 
8 | COc1ccnc(C(=O)NC(C)C(=O)N(C)C(C)c2ccc(C3CCCCC3)cc2)c1O (mixture of isomers) [Compound 98] | 0 | 0 | 71 | 0 | 59 | 89 | 0 |  |  |  |  |  |  | 
9 | COc1ccnc(C(=O)N[C@@H](C)C(=O)OC(C)c2ccc(-n3ccc(C(F)(F)F)n3)cc2Cc2ccccc2)c1OC(C)=O (stereo partly drawn) [Compound 94] | 92 | 0 | 10 | 0 | 82 | 38 | 0 |  |  |  |  |  |  | 
10 | CC(NC(=O)c1cccc(NC=O)c1O)C(=O)OC(C)c1ccc(C2CCCCC2)cc1 (mixture of isomers) [Compound 97] | 92 | 0 | 100 | 0 | 99 | 98 | 99 |  |  |  |  |  |  | 
11 | COc1ccnc(C(=O)N[C@@H](C)C(=O)OC(C)c2cccc(-c3ccccc3)c2)c1O (single isomer, unassigned) [Compound 4] | 41 | 31 | 56 | 0 | 28 | 99 | 0 |  |  |  |  |  |  | 
12 | CCC(OC(=O)[C@H](C)NC(=O)c1nccc(OC)c1OCOC(C)=O)C1CCCCC1 (single isomer, unassigned) [Compound 189] |  |  |  |  |  |  |  | 100 | 0 | 46 | 26 | 98 | 100 | 0
13 | CCC(OC(=O)[C@H](C)NC(=O)c1nccc(OC)c1OC(C)=O)c1ccc(C2CCCCC2)cc1 (single isomer, unassigned) [Compound 130] | 74 | 0 | 9 | 0 | 12 | 96 | 0 |  |  |  |  |  |  | 
14 | COc1ccnc(C(=O)NC(C)C(=O)OC(C)c2cccc(-n3ccc(C(F)(F)F)n3)c2)c1O (mixture of isomers) [Compound 28] | 74 | 0 | 40 | 0 | 90 | 99 | 0 |  |  |  |  |  |  | 
15 | COc1ccnc(C(=O)N[C@@H](C)C(=O)OC(C)C2CCCc3ccccc32)c1O (single isomer, unassigned) [Compound 184] | 99 | 0 | 64 | 0 | 100 | 100 | 0 |  |  |  |  |  |  | 
16 | CCOC(=O)c1ccn(-c2ccc(C(C)OC(=O)C(C)NC(=O)c3nccc(OC)c3OC(C)=O)cc2)n1 (mixture of isomers) [Compound 48] | 55 | 0 | 4 | 0 | 8 | 55 | 0 |  |  |  |  |  |  | 
17 | COc1ccnc(C(=O)NC(C)C(=O)OC(C)C2CCC(C(C)(C)C)CC2)c1OC(C)=O (mixture of isomers) [Compound 181] | 100 | 0 | 80 | 0 | 100 | 100 | 26 |  |  |  |  |  |  | 
18 | COc1ccnc(C(=O)N[C@@H](C)C(=O)OC(C)c2ccccc2-c2ccccc2)c1O (single isomer, unassigned) [Compound 1] | 89 | 0 | 36 | 0 | 81 | 100 | 0 |  |  |  |  |  |  | 
19 | COc1ccnc(C(=O)NC(C)C(=O)OC(C)C2CCCc3ccccc32)c1OC(C)=O (mixture of isomers) [Compound 185] | 100 | 0 | 61 | 0 | 100 | 100 | 0 |  |  |  |  |  |  | 
20 | CCC(OC(=O)[C@H](C)NC(=O)c1nccc(OC)c1OCOC(C)=O)c1ccc(C2CCCCC2)cc1 (single isomer, unassigned) [Compound 134] | 74 | 0 | 33 | 0 | 64 | 97 | 0 |  |  |  |  |  |  | 
21 | COc1ccnc(C(=O)N[C@@H](C)C(=O)OC(C)c2ccc(C3CCCCC3)cc2)c1OCOC(=O)C(C)C (single isomer, unassigned) [Compound 144] | 86 | 0 | 35 | 0 | 93 | 77 | 0 |  |  |  |  |  |  | 
